Read-outs that look alike come from different tables or passages of the source.
Assays:
rat ventral aorta = assay: Blood vessel relaxation activity, phenylephrine-contracted rat ventral aorta ring specimen; details: relaxation of 1 μmol/L phenylephrine contraction; EC50 without ODQ / EC50 with 10 μmol/L ODQ
Method: A representative compound of the present invention was assayed for blood vessel relaxation activity according to the Test Example described below. In the assay, a rat (male, SD) was phlebotomized from the upper part of the heart under pentobarbital (30 mg/kg) anesthesia, and the ventral aorta was extracted. The connective tissue adhering around the blood vessel in the ventral aorta was removed in an ice-cooled Krebs-Henseleit solution (KH solution) (118 mmol/L sodium chloride, 4.7 mmol/L potassium chloride, 1.2 mmol/L magnesium sulfate, 1.2 mmol/L potassium dihydrogenphosphate, 25 mmol/L sodium hydrogen carbonate, 2.5 mmol/L calcium chloride and 10 mmol/L glucose, pH 7.4). Then, a ring specimen of 2 mm length was prepared, and fixed in 5 mL organ bath filled with the KH solution. The KH solution was maintained at 37° C., and a mixed gas of 95% O2 and 5% CO2 was ventilated. The specimen was stabilized with 1 g of the resting tension for 1 hour. In the meantime, the KH solution was exchanged twice. The tension of the specimen was recorded with a multichannel recorder through a pickup and an amplifier. After stabilization of the specimen, contraction was induced with 1 μmol/L phenylephrine (Phe), and cumulative administration of each compound (0.001, 0.01, 0.03, 0.1, 0.3, 1, 3, 10, 30, 100, 1000, 10000 nmol/L) was carried out. In the case of evaluation at the time of containing ODQ, 10 μmol/L ODQ was added 10 minutes before administration of Phe, and similar evaluation was performed.
EC50 value was calculated by Four-parameter Logistic Model with Assay Explorer (Accelrys, Inc.). Meanwhile, the solution of the test compound was prepared by dissolving the compound in DMSO to prepare solutions having the concentration of each test compound 1000 times higher than the final concentration.

human sGC = target: T1, human sGC (Homo sapiens, UniProt Q02153); assay: Maximum effect of sGC activation (intracellular Ca2+, Fura2-AM) in CHO-K1 cells stably expressing human sGC and mouse CNGA2; assay type: cell-based; details: increase rate of sGC activity vs DMSO control, test compound 10 μmol/L
T1 construct: expressed in transfected cells; host or cells: CHO-K1 (Chinese hamster ovary) cells
T1 sequence (Q02153 1-619): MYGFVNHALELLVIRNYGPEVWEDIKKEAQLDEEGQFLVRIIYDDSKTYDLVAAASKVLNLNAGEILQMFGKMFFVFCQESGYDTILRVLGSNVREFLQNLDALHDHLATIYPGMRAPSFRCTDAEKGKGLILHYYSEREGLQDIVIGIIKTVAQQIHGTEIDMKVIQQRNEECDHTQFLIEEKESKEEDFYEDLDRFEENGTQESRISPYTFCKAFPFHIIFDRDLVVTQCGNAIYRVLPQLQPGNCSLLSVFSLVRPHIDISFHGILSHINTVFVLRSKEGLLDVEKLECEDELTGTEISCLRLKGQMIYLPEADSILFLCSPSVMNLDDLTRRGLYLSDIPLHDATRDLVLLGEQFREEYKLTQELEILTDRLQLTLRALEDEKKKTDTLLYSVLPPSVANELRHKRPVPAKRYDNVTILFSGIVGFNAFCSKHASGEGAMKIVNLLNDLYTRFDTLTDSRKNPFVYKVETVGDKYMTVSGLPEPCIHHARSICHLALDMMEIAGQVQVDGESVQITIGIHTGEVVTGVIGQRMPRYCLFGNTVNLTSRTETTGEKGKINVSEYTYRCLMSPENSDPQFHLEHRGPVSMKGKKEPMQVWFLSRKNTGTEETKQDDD
T1 sequence (Q02108 1-690 partner): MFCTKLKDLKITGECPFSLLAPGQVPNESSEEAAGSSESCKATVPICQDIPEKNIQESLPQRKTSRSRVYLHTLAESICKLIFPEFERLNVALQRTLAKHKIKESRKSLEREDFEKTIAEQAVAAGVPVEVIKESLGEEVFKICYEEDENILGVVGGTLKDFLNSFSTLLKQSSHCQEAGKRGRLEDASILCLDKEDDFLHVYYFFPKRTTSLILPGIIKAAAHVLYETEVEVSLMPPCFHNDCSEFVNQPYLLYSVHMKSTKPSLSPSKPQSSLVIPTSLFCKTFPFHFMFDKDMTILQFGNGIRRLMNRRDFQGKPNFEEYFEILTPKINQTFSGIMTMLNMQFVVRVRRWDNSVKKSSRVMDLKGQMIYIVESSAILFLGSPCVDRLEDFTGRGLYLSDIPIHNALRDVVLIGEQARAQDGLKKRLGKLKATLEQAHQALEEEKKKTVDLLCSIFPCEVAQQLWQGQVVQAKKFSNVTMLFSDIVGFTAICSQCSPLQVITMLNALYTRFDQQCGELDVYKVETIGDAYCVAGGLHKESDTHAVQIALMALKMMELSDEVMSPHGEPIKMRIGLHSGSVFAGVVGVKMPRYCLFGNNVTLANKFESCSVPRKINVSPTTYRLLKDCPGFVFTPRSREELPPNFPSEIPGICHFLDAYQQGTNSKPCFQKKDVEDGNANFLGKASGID
Method: For the assay, chinese hamster ovary cells (CHO-K1 cells) stably expressing both α and β subunits of human sGC and mouse cyclic nucleotide-gated channel (CNGA2) were used.
The CHO-K1 cells stably expressing human sGC and mouse CNGA2 was cultured at 37° C. on F-12 medium containing 10% (v/v) fetal bovine serum (FBS), penicillin (100 U/mL), streptomycin (100 μg/mL), G418 (250 μg/mL) and Zeocin (250 μg/mL). The cells were suspended in a culture medium, seeded on a 96 well plate, and then cultured at 37° C. for 24 hours. The cells were washed with Assay buffer 1 (140 mmol/L sodium chloride, 5 mmol/L potassium chloride, 0.5 mmol/L magnesium chloride, 0.01 mmol/L calcium chloride, 10 mmol/L glucose, 0.4 mmol/L magnesium sulfate, 10 mmol/L 4-(2-hydroxyethyl)piperazin-1-ylethanesulfonic acid and 125 μmol/L sulfinpyrazone, pH 7.4), and then added a solution containing Fura2-AM, a fluorescent Ca^2+ indicator, in Assay buffer 1 at […] concentration thereto as an indicator solution, and cultured at 37° C. for 60 minutes. The culture medium was removed, and the cells were washed with Assay buffer 1, and then added a solution containing the test compound thereto, and cultured at room temperature for 10 minutes. A plate was placed onto a fluorometer (FlexStation II, Molecular Devices), and the intracellular calcium concentration was determined as the ratio of fluorescent intensity, obtained from measurement using 340 nm and 380 nm as excitation wavelength and 510 nm as detection wavelength.
The solution of the test compound was prepared by dissolving each test compound in DMSO at 10 mmol/L, and then diluting the solution for the test concentration at 10 μmol/L with Assay buffer (140 mmol/L sodium chloride, 5 mmol/L potassium chloride, 0.5 mmol/L magnesium chloride, 1 mmol/L calcium chloride, 10 mmol/L glucose, 0.4 mmol/L magnesium sulfate, 10 mmol/L 4-(2-hydroxyethyl)piperazin-1-ylethanesulfonic acid, […] sulfinpyrazone, 100 μmol/L isobutyl methyl xanthine, and 10 μmol/L 1H-[1,2,4]-oxadiazol[4,3-a]quinoxaline-1-one (hereinafter, ODQ), pH 7.4). The evaluation in the absence of ODQ was performed similarly, except that ODQ was not added to Assay buffer 2. As a control solution, a DMSO solution was used instead of the test compound solution.
The activity of the test compound defined as the increase rate of the sGC activity (%) at the time of adding the solution of the test compound with respect to the sGC activity at the time of adding the control solution, was calculated by dividing the fluorescent intensity ratio at the time of adding the test compound by the fluorescent intensity ratio of the control solution, and subtracting the sGC activity at the time of adding the control solution (100%).
If sGC is activated in this assay, intracellular cGMP concentration increases and accordingly intracellular Ca^2+ concentration is increased by opening of CNGA2. Accordingly, sGC activation can be measured as the change of Ca^2+ concentration in the cell. […] Accordingly, it is possible to evaluate maximum sGC activation effect including heme-dependent activation in the absence of ODQ, and also possible to evaluate heme independent sGC activation effect in the presence of ODQ.

[1] = 10 μmol/L ODQ present, read-out: Emax (%) ODQ+ (Heme-independent)
[2] = absence of ODQ, read-out: Emax (%) ODQ− (Heme-dependent)

| SMILES | EC50 Ratio (ODQ−/ODQ+) (rat ventral aorta) | Emax at 10 µM (human sGC; [1]) [%] | Emax at 10 µM (human sGC; [2]) [%] |
| --- | --- | --- | --- |
| O=C(O)CCCCN(CCc1ccccc1OCc1ccc(CCc2ccccc2)cc1)Cc1ccc(C(=O)O)cc1 [Cinaciguat, reference compound] | 12.4 |  |  |
| O=C(O)CCCCN(Cc1ccc(C(=O)O)cc1)CC(OCc1ccc(CCc2ccccc2)cc1)c1ccccc1 (stereo not shown) [Example 2, 4-{[N-(4-Carboxybutyl)-N-[2-[4-(2-phenylethyl)benzyloxy]-2-phenylethyl]amino]methyl}benzoic acid] | 3.26 | 102 | 130 |
| CC(C)(C)c1cccc(COC(CN(CCCCC(=O)O)Cc2ccc(C(=O)O)cc2)c2ccccc2)c1 (stereo not shown) [Example 10, 4-{[N-[2-(3-tert-Butylbenzyloxy)-2-phenylethyl]-N-(4-carboxybutyl)amino]methyl}benzoic acid] |  | 141 | 103 |
| O=C(O)CCCCN(Cc1ccc(C(=O)O)cc1)CC(OCc1ccc(CCc2ccccc2)cc1)c1cccc(Cl)c1 (stereo not shown) [Example 22, 4-{[N-(4-Carboxybutyl)-N-[2-(3-chlorophenyl)-2-[4-(2-phenylethyl)benzyloxy]ethyl]amino]methyl}benzoic acid] |  | 115 | 106 |
| O=C(O)CCCCN(Cc1ccc(C(=O)O)cc1)CC(OCc1ccc(CCc2ccccc2)s1)c1cccc(Cl)c1 (stereo not shown) [Example 24, 4-{[N-(4-Carboxybutyl)-N-[2-(3-chlorophenyl)-2-[5-(2-phenylethyl)thiophen-2-ylmethoxy]ethyl]amino]methyl}benzoic acid] |  | 132 | 150 |
| O=C(O)CCCCN(Cc1ccc(C(=O)O)cc1)C[C@H](OCc1ccc(CCc2ccc(Cl)cc2)cc1)c1ccccc1 [Example 40, (−)-4-{[N-(4-Carboxybutyl)-N-[(2R)-2-[4-[2-(4-chlorophenyl)ethyl]benzyloxy]-2-phenylethyl]amino]methyl}benzoic acid] |  | 120 | 127 |
| CC(C)(C)c1cc(CO[C@@H](CN(CCCCC(=O)O)Cc2ccc(C(=O)O)cc2)c2ccccc2)cc(C(C)(C)C)c1 [Example 46, (−)-4-{[N-(4-Carboxybutyl)-N-[(2R)-2-(3,5-di-tert-butylbenzyloxy)-2-phenylethyl]amino]methyl}benzoic acid] |  | 108 | 161 |
| O=C(O)CCCCN(Cc1ccc(C(=O)O)cc1)CC(OCc1cccc(CCc2ccccc2)c1)c1ccccc1 (stereo not shown) [Example 60, 4-{[N-(4-Carboxybutyl)-N-[2-[3-(2-phenylethyl)benzyloxy]-2-phenylethyl]amino]methyl}benzoic acid] |  | 88.9 | 110 |

Next, values leading:

| EC50 Ratio (ODQ−/ODQ+) (rat ventral aorta) | Emax at 10 µM (human sGC; [1]) [%] | Emax at 10 µM (human sGC; [2]) [%] | SMILES |
| --- | --- | --- | --- |
|  | 87.7 | 89.1 | O=C(O)CCCCCN(Cc1ccc(C(=O)O)cc1)CC(OCc1ccc(CCc2ccccc2)cc1)c1ccccc1 (stereo not shown) [Example 15, 4-{[N-(5-Carboxypentyl)-N-[2-[4-(2-phenylethyl)benzyloxy]-2-phenylethyl]amino]methyl}benzoic acid] |
|  | 129 | 96.2 | CC(C)(CCN(Cc1ccc(C(=O)O)cc1)CC(OCc1ccc(CCc2ccccc2)cc1)c1ccccc1)CC(=O)O (stereo not shown) [Example 18] |
|  | 129 | 83.4 | N#Cc1cccc([C@H](CN(CCCCC(=O)O)Cc2ccc(C(=O)O)cc2)OCc2ccc(CCc3ccccc3)cc2)c1 [Example 30, (−)-4-{[N-(4-Carboxybutyl)-N-[(2R)-2-(3-cyanophenyl)-2-[4-(2-phenylethyl)benzyloxy]ethyl]amino]methyl}benzoic acid] |
|  | 125 | 82.3 | CC(C)(C)c1cccc(CO[C@@H](CN(CCCCC(=O)O)Cc2ccc(C(=O)O)cc2)c2cccc(Cl)c2)c1 [Example 34, (−)-4-{[N-[(2R)-2-(3-tert-Butylbenzyloxy)-2-(3-chlorophenyl)ethyl]-N-(4-carboxybutyl)amino]methyl}benzoic acid] |
|  | 142 | 148 | O=C(O)CCCCN(Cc1ccc(C(=O)O)cc1)C[C@H](OCc1ccc(CCC2CCCC2)cc1)c1ccccc1 [Example 39, (−)-4-{[N-(4-Carboxybutyl)-N-[(2R)-2-[4-(2-cyclopentylethyl)benzyloxy]-2-phenylethyl]amino]methyl}benzoic acid] |
|  | 124 | 108 | O=C(O)CCCCN(Cc1ccc(C(=O)O)cc1)C[C@H](OCc1ccc(CCc2ccccc2)s1)c1ccccc1 [Example 43, (−)-4-{[N-(4-Carboxybutyl)-N-[(2R)-2-[5-(2-phenylethyl)thiophen-2-ylmethoxy]-2-phenylethyl]amino]methyl}benzoic acid] |

— patent US9714213B2, “4-aminomethylbenzoic acid derivative” (TOA EIYO LTD., priority 2013, dated 2017)
